PMC5681660, “Reduced hepatitis B and D viral entry using clinically applied drugs as novel inhibitors of the bile acid transporter NTCP” (Scientific Reports, 2017)
Counter-ions that a name gives are not always drawn.

Target: T1, human NTCP (Homo sapiens, UniProt Q14973)
T1 sequence (Q14973 1-349): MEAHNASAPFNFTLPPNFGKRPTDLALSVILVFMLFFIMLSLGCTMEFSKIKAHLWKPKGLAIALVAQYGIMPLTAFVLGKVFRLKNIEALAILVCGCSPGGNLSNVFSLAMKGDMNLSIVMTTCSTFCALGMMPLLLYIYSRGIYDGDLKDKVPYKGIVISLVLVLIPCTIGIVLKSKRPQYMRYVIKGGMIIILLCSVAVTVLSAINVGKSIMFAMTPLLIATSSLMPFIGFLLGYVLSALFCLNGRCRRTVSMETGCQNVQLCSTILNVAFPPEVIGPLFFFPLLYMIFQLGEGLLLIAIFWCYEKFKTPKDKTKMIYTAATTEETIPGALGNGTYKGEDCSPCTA
Assay: Screening taurocholate uptake assay (96-well, [14C]taurocholate, 10 µM drug)
Conditions: for B-score functional assay: screening taurocholate uptake, 10 µM drug

[1] = combined ranking of functional and binding screening assays
[2] = ranking over the functional and the binding screening assay

Row | Structure (SMILES) | Ranking score [1] | B-score functional assay | B-score functional assay (B-score) | Ranking score [2]
1 | Cc1cccc(CN2CCN(C(c3ccccc3)c3ccc(Cl)cc3)CC2)c1.Cl.Cl (stereo not shown) [Meclozine dihydrochloride] | 482.469 | -1.455 |  | 
2 | COc1cc(C(=O)NCc2ccc(OCCN(C)C)cc2)cc(OC)c1OC [Trimethobenzamide hydrochloride] | 1250.5 |  | 2.997 | 
3 | CN(C)CCC[C@@]1(c2ccc(F)cc2)OCc2cc(C#N)ccc21 [Escitalopram oxalate] | 540.899 | 0.103 |  | 
4 | CCCOc1cc(N)ccc1C(=O)OCCN(CC)CC [Propoxycaine hydrochloride] |  | -2.561 |  | 73.2735
5 | CC1Cc2ccccc2N1NC(=O)c1ccc(Cl)c(S(N)(=O)=O)c1 (stereo not shown) [Indapamide] | 559.557 | -0.108 |  | 
6 | COCCCC/C(=N\OCCN)c1ccc(C(F)(F)F)cc1 [Fluvoxamine maleate] | 486.369 | 0.566 |  | 
7 | c1ccc2c(c1)OCC(C1=NCCN1)O2 (stereo not shown) [Idazoxan hydrochloride] |  | -2.926 |  | 198.728
8 | Cl.Cl.c1ccc2c(c1)CCCc1cc(NCCN3CCOCC3)nnc1-2 |  | -1.983 |  | 77.0714
9 | Cc1c(Nc2ncccc2C(=O)O)cccc1C(F)(F)F [Flunixin meglumine] |  | -2.582 |  | 133.828
10 | CC(C)NCC(O)COc1ccc(COCCOC(C)C)cc1 (stereo not shown) [Bisoprolol fumarate] |  | 0.023 |  | 263.481
11 | CN1CCC(OC(c2ccccc2)c2ccccc2)CC1 [Diphenylpyraline hydrochloride] |  | -0.425 |  | 142.127
12 | C[N+]1(C)CCC(=C(c2ccccc2)c2ccccc2)CC1 [Diphemanil methylsulfate] | 1220.85 |  | 2.82 | 
13 | COc1ccccc1OCC(O)COC(N)=O (stereo not shown) [Methocarbamol] | 504.159 | -0.493 |  | 
14 | C=C1c2cccc(O)c2C(=O)C2=C(O)[C@]3(O)C(=O)C(C(N)=O)=C(O)[C@@H](N(C)C)[C@@H]3[C@@H](O)[C@H]12 [Methacycline hydrochloride] |  | 0.118 |  | 244.434
15 | COc1cc([C@@H]2c3cc4c(cc3[C@H](O)[C@H]3COC(=O)[C@H]23)OCO4)cc(OC)c1OC [Podophyllotoxin] | 1193.91 |  | 1.781 | 
16 | CCC(NC(C)C)C(O)c1ccc(O)c(O)c1.CS(=O)(=O)O (stereo not shown) [Isoetharine mesylate salt] | 639.265 | -0.384 |  | 
17 | CSc1ccc2c(c1)N(CCC1CCCCN1C)c1ccccc1S2 (stereo not shown) [Thioridazine hydrochloride] |  | 0.02 |  | 203.814

Row | Structure (SMILES) | Ranking score [1] | B-score functional assay | B-score functional assay (B-score) | Ranking score [2]
18 | CC(=O)N(CC(O)CN(C(C)=O)c1c(I)c(C(=O)NCC(O)CO)c(I)c(C(=O)NCC(O)CO)c1I)c1c(I)c(C(=O)NCC(O)CO)c(I)c(C(=O)NCC(O)CO)c1I (stereo not shown) [Iodixanol] |  | 2.051 |  | 270.78
19 | CC(C)OC(=O)C(C)(C)Oc1ccc(C(=O)c2ccc(Cl)cc2)cc1 [Fenofibrate] |  | -0.159 |  | 212.979
20 | Br.C[N+]1([O-])[C@@H]2CC(OC(=O)[C@H](CO)c3ccccc3)C[C@H]1[C@@H]1O[C@@H]12 (stereo partly shown) [Scopolamin-N-oxide hydrobromide] |  | -2.352 |  | 208.216
21 | CN1CCN(C(c2ccccc2)c2ccc(Cl)cc2)CC1 (stereo not shown) [Chlorcyclizine hydrochloride] | 1232.56 |  | 4.014 | 
22 | CC[C@H](c1ccc(O)cc1)[C@@H](CC)c1ccc(O)cc1 [Hexestrol] |  | -5.763 |  | 43.1277
23 | CNCC(O)c1ccc(O)c(O)c1 (stereo not shown) [Racepinephrine HCl] | 629.338 | -0.581 |  | 
24 | C[C@]12C=CC(=O)C=C1CC[C@@H]1[C@@H]2[C@@H](O)C[C@@]2(C)[C@H]1CC[C@]2(O)C(=O)CO [Prednisolone] | 486.999 | -0.52 |  | 
25 | C[C@@H]1C[C@H]2[C@@H]3CCC4=CC(=O)C=C[C@]4(C)[C@@]3(Cl)[C@@H](O)C[C@]2(C)[C@@]1(OC(=O)c1ccco1)C(=O)CCl [Mometasone furoate] |  | -0.4 |  | 101.489
26 | CN[C@@H]1[C@H](O[C@H]2[C@H](O[C@H]3[C@H](O)[C@@H](O)[C@H](NC(=N)N)[C@@H](O)[C@@H]3NC(=N)N)O[C@@H](C)[C@]2(O)CO)O[C@@H](CO)[C@H](O)[C@H]1O [Dihydrostreptomycin sulfate] |  | -2.479 |  | 143.478
27 | CC(C)(C#N)c1cc(Cn2cncn2)cc(C(C)(C)C#N)c1 [Anastrozole] | 558.153 | 0.728 |  | 
28 | C=C1/C(=C\C=C2/CCC[C@]3(C)[C@@H]([C@H](C)CCCC(C)C)CC[C@@H]23)C[C@@H](O)C[C@@H]1O [Alfacalcidol] | 594.47 | -0.117 |  | 
29 | CN(C)CCCC1(c2ccc(F)cc2)OCc2cc(C#N)ccc21 (stereo not shown) [Citalopram Hydrobromide] |  | -1.909 |  | 277.496
30 | CO[C@H]1/C=C/O[C@@]2(C)Oc3c(C)c(O)c4c(O)c(c(/C=N/N5CCN(C6CCCC6)CC5)c(O)c4c3C2=O)NC(=O)/C(C)=C\C=C\[C@H](C)[C@H](O)[C@@H](C)[C@@H](O)[C@@H](C)[C@H](OC(C)=O)[C@@H]1C [Rifapentine] |  | 0.477 |  | 220.209
31 | CS(=O)(=O)c1ccc([C@@H](O)[C@@H](CF)NC(=O)C(Cl)Cl)cc1 [Florfenicol] |  | -0.913 |  | 235.125
32 | C=CC1=C(C(=O)O)N2C(=O)[C@@H](NC(=O)/C(=N\O)c3csc(N)n3)[C@H]2SC1 [Cefdinir] | 598.124 | -0.454 |  | 
33 | CN(C)C(=O)Oc1cc(OC(=O)N(C)C)cc(C(O)CNC(C)(C)C)c1.Cl (stereo not shown) [Bambuterol hydrochloride] | 562.701 | -0.006 |  | 
34 | CN(C)CCN(Cc1ccccc1)c1ccccn1 [Tripelennamine hydrochloride] | 512.348 | -0.493 |  | 

Next, values leading:

Row | Ranking score [1] | B-score functional assay | B-score functional assay (B-score) | Ranking score [2] | Structure (SMILES)
35 |  | -0.847 |  | 235.1 | COc1cc(N)c(Cl)cc1C(=O)NC1CCN(CCCOc2ccc(F)cc2)CC1OC (stereo not shown) [Cisapride]
36 |  | -5.011 |  | 148.825 | CCc1oc2ccccc2c1C(=O)c1cc(Br)c(O)c(Br)c1 [Benzbromarone]
37 |  | -0.48 |  | 274.683 | C#C[C@]1(O)CC[C@H]2[C@@H]3CCC4=CC(=O)CC[C@@H]4[C@H]3CC[C@@]21C [Norethindrone]
38 | 560.079 | 0.488 |  |  | Cc1c(NC(=O)c2cccnc2)c(=O)n(-c2ccccc2)n1C [Nifenazone]
39 |  | -2.765 |  | 211.225 | CCOC(=O)O[C@]1(C(=O)OCCl)CC[C@H]2[C@@H]3CCC4=CC(=O)C=C[C@]4(C)[C@H]3[C@@H](O)C[C@@]21C [Loteprednol etabonate]
40 |  | 0.012 |  | 186.888 | Nc1ccc(S(=O)(=O)c2ccc(N)cc2)cc1 [Dapsone]
41 | 1214.72 |  | 2.873 |  | CC(C)(C)NCC(O)c1ccccc1Cl (stereo not shown) [Tulobuterol]
42 |  | -0.231 |  | 269.035 | COc1ccc(-c2ccc(=N)n(CCCC(=O)O)n2)cc1 [Gabazine bromide]
43 | 596.712 | 2.094 |  |  | CC(CCc1ccccc1)NCC(O)c1ccc(O)c(C(N)=O)c1 (stereo not shown) [Labetalol hydrochloride]
44 |  | -0.419 |  | 238.967 | CCCCc1cc2ccccc2c(OCCN(C)C)n1 [Dimethisoquin hydrochloride]
45 |  | -3.546 |  | 178.326 | O=C(Nc1ccc([N+](=O)[O-])cc1Cl)c1cc(Cl)ccc1O [Niclosamide]
46 | 488.941 | -1.268 |  |  | CCN(CC)CCOC(=O)C(Cc1cccc2ccccc12)CC1CCCO1 (stereo not shown) [Nafronyl oxalate]
47 |  | -3.481 |  | 245.632 | CC[C@H](C)C(=O)O[C@H]1C[C@H](O)C=C2C=C[C@H](C)[C@H](CC[C@@H](O)C[C@@H](O)CC(=O)O)[C@H]21 [Pravastatin]
48 | 1141.61 |  | 0.859 |  | CCN(CC)CCNC(=O)c1cc(Cl)c(N)cc1OC.Cl [Metoclopramide monohydrochloride]
49 | 554.797 | -0.917 |  |  | CC(C(=O)O)c1ccc(C(=O)c2cccs2)cc1 (stereo not shown) [Suprofen]
50 | 518.986 | 0.32 |  |  | CC(C)[C@H](N)C(=O)OCCOCn1cnc2c(=O)[nH]c(N)nc21 [Valacyclovir hydrochloride]
51 | 533.183 | -0.84 |  |  | CCC(C)(C)c1ccc(CC(C)CN2C[C@@H](C)O[C@@H](C)C2)cc1 (stereo partly shown) [Amorolfine hydrochloride]
52 |  | -3.373 |  | 218.945 | CC[C@@H](CO)NCCN[C@@H](CC)CO [Ethambutol dihydrochloride]
53 |  | -1.174 |  | 266.713 | CO[C@@]1(NC(=O)CSCC#N)C(=O)N2C(C(=O)O)=C(CSc3nnnn3C)CS[C@@H]21 [Cefmetazole sodium salt]
